Assay results from patent US20120329767A1, “Methods and Compositions for Treating Cancer” (priority 2010, published 2012).
Like-named read-outs stand apart in the source and are kept apart here.

Key:
A2780 = assay: MTT test on A2780 ovarian cancer line; format: cell-based; conditions: MTT method
Black-6 mice = Black-6 mice aged 8 weeks, single dose, intraperitoneal, followed up over 15 days
Source text: As comparison, the acute toxicity of the above-described reference compound is given.
In this experiment, the injections were given via intraperitoneal route with groups of 5 animals per dose. The weight and survival of the animals were followed up over 15 days.

CHOP protein = assay: Expression of the CHOP protein, Western blot; format: cell-based, human; conditions: A172 tumour cells treated 6 hours at 5 μM and 10 μM, versus reference compound
Source text: (§1) To determine via which mechanisms of action compounds 8 and 9 could lead to slowing of cell proliferation or to cell death, the activation of two specific markers, the expression of the CHOP protein and phosphorylation of the histone H2AX on the serine site […] were monitored. The CHOP protein has pro-apoptotic properties (induction of cell death). Phosphorylation of the H2AX histone is a marker of DNA damage which leads to activation of p53, a protein having pro-apoptotic properties or the property of slowing cell proliferation.
(§2) In these experiments, the tumour cells A172 were treated for 6 hours with the compounds at two concentrations (5 μM and 10 μM). After the 6 hour treatment time, the cells were lysed and […] of soluble proteins were separated on 12% polyacrylamide gel. After migration, the proteins were transferred onto nitrocellulose using the Western blot technique. The proteins CHOP and H2AX were then detected using specific primary antibodies, themselves recognized by corresponding secondary antibodies whose peroxidase activity was identified using an ECL kit.

[1] = tested on: melanoma model F10B16 implanted in Black-6 mice; assay: Tumour growth in in vivo melanoma model F10B16; conditions: F10B16 melanoma in Black-6 mice, twice a week at 7.5 μmol/kg
Source text: To determine the anti-cancer potential of these molecules, we analyzed the effects of compound 8 and compound 9 on tumour growth, using the in vivo melanoma model F10B16 implanted in Black-6 mice. […] The chronic treatments (twice a week at 7.5 μmol/kg) in mice having tumours led to a reduction in tumour growth. This reduction in tumour growth (treated tumour volume/non-treated tumour volume: T/C) was of the order of 80% for compound 8 and 60% for compound 9 (see Table 4 and FIGS. 6 and 7).
In these experiments, the […] cells (200 000 cells) were implanted sub-cutaneously in Black-6 mice aged 8 weeks. Groups of 6 mice per condition were formed. The treatments were started when the tumours were palpable with a volume of the order of 100 mm^3.

Katto III = assay: MTT test on Katto III pancreatic cancer line; format: cell-based; conditions: MTT method, Katto III gastric cancer
3LL = assay: MTT test on 3LL lung cancer line; format: cell-based; conditions: MTT method
A-172 cells = assay: MTT test on A172 glioblastoma cells; format: cell-based, human; conditions: 48 h treatment, A-172 glioblastoma cells, Table 1
Procedure: Cisplatin was chosen as cytotoxic agent for comparison. As first approach, a MTT test was used to measure the activity of a mitochondrial enzyme which gives an estimation of the number of cells.
The experiments were performed under a vertical laminar flow hood. The cell growth medium was composed of DMEM (Dulbecco's Modified Eagle's Medium), HEPES, 10% FCS (Foetal Calf Serum), 5% PS (Penicillin, Streptomycin) and was stored at +4° C., and PBS (Phosphate Buffer Saline, pH=7.4). […] MTT (4,5-dimethylthiazol-2-diphenyltetrazolium bromide) is a yellow solid produced by Aldrich. It was placed in sterile aqueous solution at a concentration of 5 mg/ml and stored at +4° C. It was diluted to 10% in the cell culture medium when used as staining agent of the living cells.
(§3) When they were sufficiently numerous (70% confluence) they were washed in PBS at ambient temperature then mixed with 1.5 mL of Trypsin-EDTA to detach them from the Petri dish. […] After 48 hours, the medium was replaced by a MTT solution at 37° in the medium, which was placed in the incubator for at least one hour or until violet crystals derived from the complexing of MTT were formed quantitatively at the bottom of each well. […] The optical density of the solutions obtained was read off. […]

Fadu = assay: MTT test on Fadu head & neck cancer line; format: cell-based; conditions: MTT method
N2A = assay: MTT test on N2A neuroblastoma line; format: cell-based; conditions: MTT method
HCT116 cells = assay: Cell cycle profile by FACS after propidium iodide staining; format: cell-based, human; conditions: HCT116 cells treated 48 h at 1 μM and 5 μM
Source text: The effect of compounds 8 and 9 on the cell profile was studied using the FACS technique (Fluorescence Activated Cell Sorter i.e. the association of a flow cytometer and a cell sorter) after staining the cells with propidium iodide to visualize the quantity of cell DNA. These analyses allow visualization of the cell cycle phase at which the cells accumulate subsequent to treatment with the compounds of the invention, and possibly whether cell death by apoptosis has been induced.
In this experiment, the HCT116 cells were treated for 48 h at the indicated doses (1 μM and 5 μM). After a treatment time of 48 h, the cells were washed three times with PBS (phosphate buffer saline) and fixed in 90% ethanol. The cells were then stained with a solution of propidium iodide/RNase. The stained cells (10 000 per sample) were then counted using a FACScan flow cytometer and CellQuest software (Becton Dickinson) to determine the DNA content and the profile of the cell cycle.

HCT-116 cells = assay: MTT test on HCT116 colon cancer cells; format: cell-based, human; conditions: MTT method, Table 2
Procedure: A human glioblastoma line (A172) and a colon cancer line (HCT116) were used to test the cytostatic effects of the compounds according to the invention. Cisplatin was chosen as cytotoxic agent for comparison. As first approach, a MTT test was used to measure the activity of a mitochondrial enzyme which gives an estimation of the number of cells.
The experiments were performed under a vertical laminar flow hood. The cell growth medium was composed of DMEM (Dulbecco's Modified Eagle's Medium), HEPES, 10% FCS (Foetal Calf Serum), 5% PS (Penicillin, Streptomycin) and was stored at +4° C., and PBS (Phosphate Buffer Saline, pH=7.4). […] MTT (4,5-dimethylthiazol-2-diphenyltetrazolium bromide) is a yellow solid produced by Aldrich. […]
as §3
The IC50 values (μM) were determined for each of the lines and compared with the values obtained for a reference ruthenium derived compound.

histone H2AX = assay: Phosphorylation of histone H2AX, Western blot; format: cell-based, human; conditions: A172 tumour cells treated 6 hours at 5 μM and 10 μM, versus reference compound
Source text: as §1, §2

U87 = assay: MTT test on U87 glioblastoma line; format: cell-based; conditions: MTT method

| SMILES | IC50 (A2780) [nM] | LD50 (Black-6 mice) [µmol/kg] | Induction of expression of the CHOP protein (CHOP protein) | T/C (reduction in tumour growth; treated tumour volume/non-treated tumour volume) ([1]; listed as Compound 8) [%] | T/C (reduction in tumour growth; treated tumour volume/non-treated tumour volume) ([1]; listed as compound 8) [%] | IC50 (Katto III) [nM] | IC50 (3LL) [nM] | IC50 (A-172 cells) [nM] | IC50 (Fadu) [nM] | IC50 (N2A) [nM] | Profile of the cell cycle (HCT116 cells) | IC50 (HCT-116 cells) [nM] | Phosphorylation of the histone H2AX on the serine site 137 (histone H2AX) | IC50 (U87) [nM] | LD50 (Black-6 mice; listed as Compound 9) [µmol/kg] | LD50 (Black-6 mice; listed as compound 9) [µmol/kg] | T/C (reduction in tumour growth; treated tumour volume/non-treated tumour volume) ([1]; listed as Compound 9) [%] | T/C (reduction in tumour growth; treated tumour volume/non-treated tumour volume) ([1]; listed as compound 9) [%] |
| --- | --- | --- | --- | --- | --- | --- | --- | --- | --- | --- | --- | --- | --- | --- | --- | --- | --- | --- |
| CC#[N+][Ru-4]123([c]4c(cc(C(=O)OC)cc4-c4cccc[n+]41)-c1cccc[n+]12)[n+]1cccc2ccc4ccc[n+]3c4c21.F[P-](F)(F)(F)(F)F [Compound (8)] | 1000 to 2000 | 22.5 | more efficient | 81 | ~80 | 1000 to 2000 | 1000 to 2000 | 1500 to 1900 | 1000 to 2000 | 1000 to 2000 | induce a halt in the cell cycle at phase G1 or cell death | 1000 to 2000 | more efficient | 1000 to 2500 |  |  |  |  |
| CC#[N+][Ru-4]123([c]4c(cc(C)cc4-c4cccc[n+]41)-c1cccc[n+]12)[n+]1cccc2ccc4ccc[n+]3c4c21.F[P-](F)(F)(F)(F)F [Compound (9)] | 100 to 1000 |  | more efficient |  |  | 100 to 1000 | 100 to 1000 | 600 to 1000 | 100 to 1000 | 100 to 1000 | induce a halt in the cell cycle at phase G1 or cell death | 100 to 1000 | more efficient | 1000 to 2000 | >60 | > 60 | 58 | ~60 |
